We go through two compounds from article PMC10831936 (iScience, 2024).

One experiment deals with HTR2A NFAT. Nature of the experiment: ERBBprofiler barcoded NFAT pathway sensor, HTR2A co-transfected. The conditions noted are these: Rattus norvegicus, PC-12, 6 h, read-out: HTR2A NFAT IC50.
Experiment [1] concerns the target T1, ERBB4 (Homo sapiens, UniProt Q15303). Nature of the experiment: Split TEV firefly luciferase assay, ERBB4. The format is cell-based. The settings on record: PC12 cells; constant EGF-like domain 10 ng/mL; luciferase readout. As to the method: (§1) 50,000 PC12 cells were seeded per 96-well onto poly-L-lysin (PLL)-coated plates and transfected the following day (day in vitro 1, DIV1) with assay plasmids using Lipofectamine 3000 (Thermo Fisher Scientific). For split TEV assays, plasmids (pcDNA3 or pTag4C backbone) encoding receptor-NTEV-tcs-GV, GRB2-SH2-CTEV (for ERBB receptors) or ARBB2-1-383-CTEV (for HTR2A) (all 10 ng/well), and the p10xUAS-luc2 reporter plasmid (10 ng/well) were used. For pathway assays, the receptor plasmids (15 ng/well) and pathway reporter plasmids (15 ng/well) pEGR1p-luc2 for monitoring MAPK signaling, pCRE-CMVmin-luc2 for monitoring cAMP/Ca^2+ signaling, or p6xNFAT-CMVmin-luc2 for Ca^2+ signaling were used. Transient transfections were conducted according to the manufacturer’s instructions. On DIV2, cells were starved in medium containing 1% FCS for 16 h. […] In the case of antagonist assays, compounds were added at increasing doses together with the stimulus. Cells were lysed in 1x passive lysis buffer (Promega) and subjected to a firefly luciferase assay using a self-made substrate for firefly luciferase.[100] Luciferase activity was analyzed in a Mithras LB 940 Multimode Microplate Reader (Berthold Technologies). All assays were run in 96-well plates using six replicates per condition.

Experiment [2] addresses T1, ERBB4. Put plainly: ERBBprofiler barcoded split TEV assay, ERBB4. The conditions noted are these: ERBB4 UAS (split TEV) IC50, PC12 cells; constant EGF 30 ng/mL, EGFld 10 ng/mL, serotonin 1 μM; 6 h; barcode readout; relative IC50.
The subject of the next experiment is HTR2A EGR1p. Nature of the experiment: ERBBprofiler barcoded EGR1p pathway sensor, HTR2A co-transfected. The settings on record: Rattus norvegicus, PC-12, 6 h, read-out: HTR2A EGR1p IC50.
Experiment [3] has as its system phospho-ERK1/2. Nature of the experiment: Western blot of p-ERK1/2 in T-47D cells (EGFld stimulated). The format is cell-based. The conditions noted are these: Homo sapiens, T47D, compound 1 h, EGFld 10 ng/mL 5 min, read-out: p-ERK1/2 IC50 (ERBB4), Western blot quantification. As to the method: (§2) Phosphorylation levels of EGFR were assessed[37] in A549 cells, while phosphorylation levels of ERBB4 were assessed in T-47D cells. Before stimulation experiments were performed, both cell types were starved overnight in 1% FCS and compounds were incubated for 1 h. […] For lysis, cells were washed 1x with PBS and lysed in a Triton X- lysis buffer (1% Triton X-100, 50 mM Tris pH7.5, 150 mM NaCl, 1 mM EGTA) containing the Complete protease inhibitor cocktail (Roche) and PhosSTOP phosphatase inhibitor (Roche). Briefly, cells were lysed and kept on ice for 10 min, sonicated 3x for 10 s at 4°C, and denatured for 10 min at 70°C. The Mini-PROTEAN Tetra Electrophoresis System and Trans-Blot Turbo Botting System (both Bio-Rad) were used for running and blotting protein gels. […] Total EGFR and ERBB4 protein levels were determined using an anti-EGFR antibody (RRID: AB_10920395) (clone A-10, dilution 1:1000, sc-373746, Santa Cruz Biotechnology) and an anti-ERBB4 antibody (RRID: AB_731579) (clone E200, dilution 1:1000, ab32375, Abcam). […] Tubulin levels were determined using an anti-Tubulin antibody (RRID: AB_477579) (dilution 1:2000, No. T 5168, Sigma-Aldrich). For quantification, phosphorylation levels of p-EGFR relative to EGFR as well as p-ERBB4 relative to ERBB4 were calculated using the Lukemiller protocol (http://lukemiller.org/index.php/2010/11/analyzing-gels-and-western-blots-with-image-j/). […]
Background: In western blotting, separated proteins are transferred to a membrane and probed.

For another experiment, the system named is calcium. Put plainly: Fluo-4 AM calcium assay in PC12 cells. The format is cell-based, Rattus norvegicus. The conditions noted are these: stimulation mix.
Experiment [4] concerns EGR1p (MAPK signaling), EGFR. Put plainly: EGR1p pathway sensor luciferase assay, EGFR. Type of experiment: cell-based, Rattus norvegicus. The conditions noted are these: Rattus norvegicus, PC-12; read-out: EGFR downstream MAPK signaling IC50, EGR1p sensor luciferase. As to the method:
as §1

The next experiment concerns cAMP. Put plainly: GloSensor cAMP assay in PC12 cells. The format is cell-based, Rattus norvegicus.
The next experiment deals with EGR1p (ERBB4). Nature of the experiment: EGR1p pathway sensor luciferase assay, ERBB4 transfected. The format is cell-based, Rattus norvegicus. The conditions noted are these: Rattus norvegicus, PC-12; PC12 cells; constant EGF-like domain 10 ng/mL; luciferase readout; read-out: ERBB4 downstream MAPK signaling IC50, EGR1p sensor luciferase. As for the experimental part: as §1

A further experiment relates to ERBB4 EGR1p. Nature of the experiment: ERBBprofiler barcoded EGR1p pathway sensor, ERBB4 co-transfected. The settings on record: Rattus norvegicus, PC-12, 6 h, read-out: ERBB4 EGR1p IC50.
In a further experiment the target is ERBB2/3 (Homo sapiens, UniProt P04626+P21860). Nature of the experiment: ERBBprofiler barcoded split TEV assay, ERBB2/3.
For a further experiment, the target named is T2, phospho-ERBB4 (Homo sapiens, UniProt Q15303).
T2 construct: T-47D cells, which endogenously express ERBB4; host or cells: T-47D cells
Nature of the experiment: Western blot of p-ERBB4 in T-47D cells. The format is cell-based. The settings on record: compound 1 h, EGFld 10 ng/mL 5 min, read-out: p-ERBB4 IC50, Western blot quantification. As to the method: as §2

For experiment [5], the system named is ERBB receptors, HTR2A, and downstream signaling pathways. Put plainly: ERBBprofiler multiplexed barcoded assay, overall statements across all receptor batches and sensors. The settings on record: 10 μM compound; PC12 cells; stimulation mix.
Experiment [6] has as its system phospho-ERK1/2. Nature of the experiment: Western blot of p-ERK1/2 in A549 cells (EGF stimulated). The format is cell-based. The conditions noted are these: Homo sapiens, read-out: p-ERK1/2 IC50 (EGFR), Western blot quantification. As to the method: as §2

Entries after “also recorded” stand apart in the source; their conditions may differ.

T1 sequence (Q15303 26-1308): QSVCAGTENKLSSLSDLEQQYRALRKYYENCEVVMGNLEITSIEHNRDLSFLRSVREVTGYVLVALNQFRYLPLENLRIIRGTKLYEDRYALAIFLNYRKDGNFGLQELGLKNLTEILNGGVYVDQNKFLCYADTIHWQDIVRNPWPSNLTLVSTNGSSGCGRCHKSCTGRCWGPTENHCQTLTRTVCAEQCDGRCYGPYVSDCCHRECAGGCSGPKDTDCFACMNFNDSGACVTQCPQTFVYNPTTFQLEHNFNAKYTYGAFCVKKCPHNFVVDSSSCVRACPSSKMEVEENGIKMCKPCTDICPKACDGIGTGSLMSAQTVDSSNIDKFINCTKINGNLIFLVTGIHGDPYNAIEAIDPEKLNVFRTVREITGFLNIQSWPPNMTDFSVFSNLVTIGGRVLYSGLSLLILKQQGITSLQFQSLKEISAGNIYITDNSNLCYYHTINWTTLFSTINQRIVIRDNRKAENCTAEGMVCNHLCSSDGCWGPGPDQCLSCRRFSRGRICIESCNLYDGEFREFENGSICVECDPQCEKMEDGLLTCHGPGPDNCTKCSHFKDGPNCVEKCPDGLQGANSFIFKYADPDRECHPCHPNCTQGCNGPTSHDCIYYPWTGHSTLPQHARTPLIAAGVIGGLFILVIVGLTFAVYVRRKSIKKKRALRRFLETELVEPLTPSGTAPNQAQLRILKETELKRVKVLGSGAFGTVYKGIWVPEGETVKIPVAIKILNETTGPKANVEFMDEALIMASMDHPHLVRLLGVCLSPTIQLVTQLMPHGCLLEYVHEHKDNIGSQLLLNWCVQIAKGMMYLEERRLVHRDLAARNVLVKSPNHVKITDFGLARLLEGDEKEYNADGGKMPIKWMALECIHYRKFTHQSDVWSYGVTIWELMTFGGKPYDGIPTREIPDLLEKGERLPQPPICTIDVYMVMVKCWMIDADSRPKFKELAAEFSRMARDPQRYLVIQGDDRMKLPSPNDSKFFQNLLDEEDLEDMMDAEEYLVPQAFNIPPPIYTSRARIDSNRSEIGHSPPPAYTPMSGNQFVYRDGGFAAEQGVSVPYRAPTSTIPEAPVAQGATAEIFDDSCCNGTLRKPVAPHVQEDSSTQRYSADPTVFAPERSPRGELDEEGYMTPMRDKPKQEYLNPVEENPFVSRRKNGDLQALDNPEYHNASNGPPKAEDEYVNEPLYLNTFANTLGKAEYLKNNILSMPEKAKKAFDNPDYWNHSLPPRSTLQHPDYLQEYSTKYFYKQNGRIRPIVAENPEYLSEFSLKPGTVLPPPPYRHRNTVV
ERBB2/3, sequence (P04626 23-1255): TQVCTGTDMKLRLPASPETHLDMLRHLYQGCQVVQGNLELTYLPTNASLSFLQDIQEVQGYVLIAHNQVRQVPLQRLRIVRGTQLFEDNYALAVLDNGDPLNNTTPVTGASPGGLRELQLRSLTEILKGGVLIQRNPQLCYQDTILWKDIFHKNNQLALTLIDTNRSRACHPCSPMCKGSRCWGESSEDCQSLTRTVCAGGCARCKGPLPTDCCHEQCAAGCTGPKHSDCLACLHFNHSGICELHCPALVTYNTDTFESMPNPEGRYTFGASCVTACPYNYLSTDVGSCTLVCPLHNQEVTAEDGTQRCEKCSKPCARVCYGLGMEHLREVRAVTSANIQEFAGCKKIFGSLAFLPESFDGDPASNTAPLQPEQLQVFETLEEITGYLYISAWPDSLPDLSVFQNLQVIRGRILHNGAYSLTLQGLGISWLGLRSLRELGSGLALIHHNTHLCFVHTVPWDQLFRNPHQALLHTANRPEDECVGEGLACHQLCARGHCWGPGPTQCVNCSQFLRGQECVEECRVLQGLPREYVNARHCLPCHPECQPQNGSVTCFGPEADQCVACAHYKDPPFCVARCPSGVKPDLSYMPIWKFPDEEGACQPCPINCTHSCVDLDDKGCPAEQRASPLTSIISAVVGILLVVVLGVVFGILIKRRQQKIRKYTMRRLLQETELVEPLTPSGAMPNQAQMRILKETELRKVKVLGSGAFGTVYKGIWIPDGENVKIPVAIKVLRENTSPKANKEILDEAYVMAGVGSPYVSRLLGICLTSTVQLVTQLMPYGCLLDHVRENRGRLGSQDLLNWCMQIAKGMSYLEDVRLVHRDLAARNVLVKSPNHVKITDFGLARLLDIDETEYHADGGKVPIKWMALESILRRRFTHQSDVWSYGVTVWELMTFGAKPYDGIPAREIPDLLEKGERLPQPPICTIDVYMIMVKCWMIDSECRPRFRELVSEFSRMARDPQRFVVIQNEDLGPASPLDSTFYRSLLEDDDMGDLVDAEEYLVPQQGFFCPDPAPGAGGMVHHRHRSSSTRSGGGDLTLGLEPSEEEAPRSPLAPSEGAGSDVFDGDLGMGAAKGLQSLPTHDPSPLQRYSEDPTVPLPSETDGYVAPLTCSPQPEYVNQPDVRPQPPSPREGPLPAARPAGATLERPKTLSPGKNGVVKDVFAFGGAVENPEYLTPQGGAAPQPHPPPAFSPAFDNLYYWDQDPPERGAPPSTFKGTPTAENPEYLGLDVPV
ERBB2/3, sequence (P21860 20-1342): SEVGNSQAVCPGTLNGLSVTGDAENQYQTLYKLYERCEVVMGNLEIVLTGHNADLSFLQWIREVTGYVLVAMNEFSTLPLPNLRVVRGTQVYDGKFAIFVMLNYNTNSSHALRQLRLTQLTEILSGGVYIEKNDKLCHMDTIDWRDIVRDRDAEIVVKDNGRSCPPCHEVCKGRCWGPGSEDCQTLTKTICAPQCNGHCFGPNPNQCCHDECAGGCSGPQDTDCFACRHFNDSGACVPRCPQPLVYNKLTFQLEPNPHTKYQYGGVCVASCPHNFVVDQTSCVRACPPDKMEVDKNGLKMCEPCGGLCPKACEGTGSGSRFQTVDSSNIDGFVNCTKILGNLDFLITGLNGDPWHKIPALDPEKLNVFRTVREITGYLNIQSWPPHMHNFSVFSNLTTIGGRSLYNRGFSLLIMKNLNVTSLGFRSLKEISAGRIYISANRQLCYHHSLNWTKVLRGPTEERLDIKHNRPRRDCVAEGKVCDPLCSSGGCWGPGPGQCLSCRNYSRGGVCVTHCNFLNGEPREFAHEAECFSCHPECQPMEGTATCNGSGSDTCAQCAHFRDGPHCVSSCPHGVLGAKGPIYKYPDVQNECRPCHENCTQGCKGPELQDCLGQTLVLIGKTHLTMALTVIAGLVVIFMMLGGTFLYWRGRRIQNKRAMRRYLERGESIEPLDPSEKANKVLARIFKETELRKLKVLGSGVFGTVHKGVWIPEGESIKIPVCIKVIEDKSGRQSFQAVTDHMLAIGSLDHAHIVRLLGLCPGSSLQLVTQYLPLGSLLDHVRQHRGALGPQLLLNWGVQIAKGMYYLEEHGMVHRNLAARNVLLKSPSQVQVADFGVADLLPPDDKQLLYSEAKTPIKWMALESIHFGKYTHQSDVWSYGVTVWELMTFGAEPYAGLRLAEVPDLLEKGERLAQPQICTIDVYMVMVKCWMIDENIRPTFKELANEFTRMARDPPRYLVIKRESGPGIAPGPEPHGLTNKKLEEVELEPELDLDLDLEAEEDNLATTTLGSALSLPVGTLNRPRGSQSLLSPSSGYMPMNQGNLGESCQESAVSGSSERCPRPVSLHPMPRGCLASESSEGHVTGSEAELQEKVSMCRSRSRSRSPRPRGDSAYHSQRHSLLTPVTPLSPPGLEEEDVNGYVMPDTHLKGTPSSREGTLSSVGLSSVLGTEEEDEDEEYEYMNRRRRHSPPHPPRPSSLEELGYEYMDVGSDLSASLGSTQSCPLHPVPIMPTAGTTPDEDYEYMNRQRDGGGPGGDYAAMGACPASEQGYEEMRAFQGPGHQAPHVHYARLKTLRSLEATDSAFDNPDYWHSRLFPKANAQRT
T2 sequence (Q15303 26-1308): as the sequence (Q15303 26-1308) above

On to `COc1cc2ncnc(Nc3cccc(Cl)c3)c2cc1OC` [AG1478, AG-1478 (Tyrphostin AG-1478)], for which the IC50 with HTR2A NFAT came to 64 nM; at ERBB4 [1], 258 nM; at ERBB4 [2], 654 nM; in the experiment with HTR2A EGR1p, 32 nM; with phospho-ERK1/2 [3], 147 nM; in experiment [4], 94 nM. Besides, the IC50 amounted to 378 nM in the experiment with EGR1p (ERBB4); 47 nM in the experiment on ERBB4 EGR1p; 202 nM at ERBB2/3; 100 nM at phospho-ERBB4; 91 nM in the experiment on phospho-ERK1/2 [6]. Also, in the experiment on calcium, the “effect on calcium levels (Fluo-4 AM)” value is on record as “did not cause any increase”. Further, in the experiment on cAMP, the “effect on cAMP levels (GloSensor)” value is listed as “did not cause any increase”. Also, the “CRE sensor response at high compound concentration (barcoded)” value in experiment [5] is reported as “did not cause any increased CRE sensor activities”.
As for `CCOc1cc2ncc(C#N)c(Nc3ccc(OCc4ccccn4)c(Cl)c3)c2cc1NC(=O)/C=C/[C@H]1CCCN1C` [Pyrotinib], the IC50 was 576 nM in the experiment with HTR2A NFAT; 324 nM against ERBB4 [1]; 117 nM against ERBB4 [2]; 160 nM in the experiment on HTR2A EGR1p; 4990 nM in the experiment with phospho-ERK1/2 [3]; 450 nM in experiment [4]. Moreover, the IC50 turned out to be 284 nM with EGR1p (ERBB4); 113 nM in the experiment on ERBB4 EGR1p; 92 nM on ERBB2/3; 344 nM at phospho-ERBB4; 6540 nM with phospho-ERK1/2 [6]. Besides, the “effect on calcium levels (Fluo-4 AM)” value in the experiment with calcium is “but not calcium levels”. The EC50 (commonly the concentration needed to bring the measured effect to its halfway point) in the experiment on cAMP (Rattus norvegicus, PC-12, 0.25 h, constant stimulation mix, 15 min, cAMP increase) came out at 1920 nM. Further, in the experiment with cAMP (stimulation mix), the “compound concentration resulting in elevated cAMP (GloSensor)” value is at least 3 µM. Moreover, the “CRE sensor response at high compound concentration (barcoded)” value in experiment [5] is given as “upregulation of the CRE sensor; also recorded: upregulated CRE sensor response”.
